Assays:
[1] = tested on: mice in which alcoholic functional disorders of a liver were developed; assay: Total cholesterol amount in the liver 12 hours after ethanol administration; type: in vivo; settings: 12 hours following the ethanol administration; control = no administration
Experimental: (§1) Measurements were conducted using a clinical diagnosis kit available from Wako Pure Chemical Industries, Ltd.
The following reagents were used for the measurement of the total cholesterol.
The action of the color generating agent to a specimen to be measured decomposes the cholesterols into the liberated cholesterols and fatty acids by the action of the cholesterol esterase. The cholesterols thus generated together with the liberated cholesterols already existing are oxidized to produce hydrogen peroxide by means of the action of the cholesterol oxidase. The hydrogen peroxide thus produced quantitatively and oxidatively condenses the phenols and 4-aminoantipyrine to generate red pigment (red quinone-based pigment, refer to Formula 3) by the action of the peroxidase (POD).
The concentration of the total cholesterol in the specimen was determined by measuring the red absorbance.
After 0.01 ml of the specimen was dissolved in isopropanol, 1.5ml of the color producing agent was added therein followed by heating at 37° C. for 10 minutes under sufficient agitation. The absorbance of the specimen at 505 nm was measured by using a blind specimen as reference by means of a spectrophotometer. […]

[2] = tested on: mice in which alcoholic functional disorders of a liver were developed; assay: Serum GOT concentration 12 hours after ethanol administration in mice pre-administered amino acid compositions; type: in vivo; settings: judged from GOT and GPT values 12 h after ethanol
Experimental: In the present Examples, outbreak and healing of functional disorders of a liver were judged by employing GOT (Glutamic Oxaloacetic Transaminase), GPT (Glutamic Pyruvic Transaminase), total cholesterol and triglyceride which are indexes for functional disorders of the liver.
as §1
The following reagents were used for measurement of GOT.
The action of the substrate enzyme liquid to a specimen to be measured generates glutamic acid and oxalacetic acid from L-aspartic acid and α-keto glutaric acid, respectively, by means of GOT in the specimen. […]
The hydrogen peroxide thus produced quantitatively and oxidatively condenses the TOOS and 4-aminoantipyrine to generate violet pigment (refer to Formula 1) by the action of the co-existing peroxidase (POD).
The active value of the GOT in the specimen is measured by the violet absorbance. The ascorbic acid contained in the specimen is decomposed by the ascorbic acid oxidase contained in the substrate enzyme liquid, thereby affecting little influence on the measured value. […]
After a standard specimen having a known concentration prepared by using the standard liquid was preliminarily heated and the substrate buffer was added thereto, the absorbance of the standard specimen was measured and a calibration curve was prepared using the measured values. […]

SMILES | total cholesterol in the liver, compared with control (FIG. 5) [1] | action for improving functional disorders of the liver using GOT and GPT as the indexes [2]
N[C@@H](Cc1ccc(O)cc1)C(=O)O [0.25% Tyr, tyrosine] | values lower than those of the control | next most effective
N[C@@H](Cc1c[nH]c2ccccc12)C(=O)O [2% Trp, tryptophane] | values lower than those of the control | next most effective
